Assay results as given in US20220387396A1, “METHODS OF TREATING THE SYMPTOMS OF AUTISM SPECTRUM DISORDER” (MapLight Therapeutics, Inc., priority 2019, published 2022).
Several values for one entry are separate records, joined by “and”; a condition that tells them apart may be missing. Identical values can stand only once. Marks after values point to notes of the source that are not given here.

Key:
[1] = tested on: resident CD-1 mice; test: Resident-Intruder (RI) assay, CD-1 resident / C57BL/6 intruder; format: in vivo, mouse; conditions: CD-1 resident mice, cross-over, N=25, zolmitriptan 10 mg/kg, risperidone 0.03 mg/kg, mean; for Attack Time (s): 5 min period
Experimental: The resident mice were isolated for 1 week prior to testing aggressive behavior, while the intruders were group housed (4 per cage) throughout the study. All mice were given ad libitum food and water. Following the 1-week isolation period, aggressive behaviors were recorded using a front-facing camera daily (Monday-Friday) for up to 2 weeks to attain a stable baseline prior to evaluating drug effects. The interaction was scored using Borris open source event logging software to score the number of total initiated attacks by the resident and the cumulative duration of those attacks. Single fight bouts lasting longer than 60 seconds were stopped and the intruder was subsequently removed from the resident cage. […] Attack time was measured over a 5 min period as a cross over design.

[2] = target: T1, rat recombinant 5-HT1b (r5-HT1b) receptors (Rattus norvegicus, UniProt P28564); test: SPA-based 35S-GTPγS binding assay, rat 5-HT1b; format: biochemical; conditions: for EC50: ten concentrations in duplicate
T1 construct: expressed in transfected cells
T1 sequence (P28564 whole entry): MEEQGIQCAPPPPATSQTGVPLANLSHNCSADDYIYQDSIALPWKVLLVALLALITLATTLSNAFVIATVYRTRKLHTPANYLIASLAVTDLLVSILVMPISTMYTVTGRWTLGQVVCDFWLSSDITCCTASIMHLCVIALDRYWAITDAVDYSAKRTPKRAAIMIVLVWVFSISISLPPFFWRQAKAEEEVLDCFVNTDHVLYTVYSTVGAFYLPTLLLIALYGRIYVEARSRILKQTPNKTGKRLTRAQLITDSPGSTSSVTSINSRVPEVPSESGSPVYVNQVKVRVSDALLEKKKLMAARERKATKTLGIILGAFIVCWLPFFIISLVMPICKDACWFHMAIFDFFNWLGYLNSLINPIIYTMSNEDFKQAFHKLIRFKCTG

[3] = in vivo; conditions: male, CD-1, mouse, ip
[4] = target: T2, human 5-HT1b (h5-HT1b) receptors (Homo sapiens, UniProt P28222); test: SPA-based 35S-GTPγS binding assay, human 5-HT1b; format: biochemical; conditions: for EC50: ten concentrations in duplicate
T2 construct: expressed in transfected cells
T2 sequence (P28222 whole entry): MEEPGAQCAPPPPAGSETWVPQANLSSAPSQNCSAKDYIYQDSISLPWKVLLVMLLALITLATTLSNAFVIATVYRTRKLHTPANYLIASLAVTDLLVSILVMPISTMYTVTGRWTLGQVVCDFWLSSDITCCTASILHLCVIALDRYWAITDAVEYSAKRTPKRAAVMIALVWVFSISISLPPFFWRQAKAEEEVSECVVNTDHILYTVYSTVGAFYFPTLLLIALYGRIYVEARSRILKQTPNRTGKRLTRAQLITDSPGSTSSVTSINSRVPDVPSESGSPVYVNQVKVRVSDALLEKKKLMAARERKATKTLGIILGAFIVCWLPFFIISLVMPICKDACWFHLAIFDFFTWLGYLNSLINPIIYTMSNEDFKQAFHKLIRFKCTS

[5] = target: T3, 5-HT1b receptor (Homo sapiens, UniProt P28222); test: 5-HT1b receptor occupancy and efficacy model, human dose prediction; conditions: for Zolmitriptan human dose: predicted dose; for Zolmitriptan [CSF]: predicted effective human CSF range
T3 sequence (P28222 whole entry): as above
From the text: Specifically, 5-HT1b receptor occupancy and efficacy models measured potency of zolmitriptan and NMDZ at the 5-HT1b receptor and the ratio of zolmitriptan: NDMZ in human CSF.
Using classical receptor theory, the receptor occupancy when considering two ligands (i.e., entities) can be predicted using the following relationship:
Total % occupancy=(% occupancy by A)+{[100%−(% occupancy by A)]×(% occupancy by B)} when considering a fixed concentration of both A and B.
The model was converted to predict the level of 5-HT1b activation (i.e., efficacy) by both zolmitriptan and NDMZ based on the concentration of zolmitriptan in the CSF by substituting Occupancy for Efficacy as predicted by the Clark equation {Efficacy=[L]/([L]+Ki); [L]=ligand concentration} for both zolmitriptan and NDMZ:
Total % Efficacy={[Zolmitriptan]/([Zolmitriptan]+Ki,Z)}+(100−{[Zolmitriptan]/([Zolmitriptan]+Ki,Z)}×{[NDMZ]/([NDMZ]+Ki,N)}

[6] = Multiple ascending oral dose study in adult healthy volunteers (safety, tolerability, CSF PK); format: in vivo, human
Experimental: An investigation of the safety, tolerability and pharmacokinetic response of oral zolmitriptan following multiple ascending doses in adult healthy volunteer subjects was undertaken.
Zolmitriptan 2.5 mg per tablet or placebo tablet was administered 3 times per day (TID) for an up-titration period, treatment period of 7 days, and a down-titration period. The dose regimen is depicted in Table 1.
A lumbar puncture was completed on each subject to determine the concentration of zolmitriptan in the CSF. CSF samples were collected on day 5 of treatment for Cohort 1 and day 7 of treatment for Cohorts 2 and 3, and day 8 of treatment for cohort 4 and 5. The CSF collection was 2 hours after the morning dose (+/−30 minutes). CSF concentration was measured using a validated bioanalytical method.

[7] = tested on: resident BALB/c mice; test: Resident-Intruder (RI) assay, BALB/c resident / C57BL/6 intruder; format: in vivo, mouse
From the text: Correspondingly, the RI assay has been used preclinically to study the effect of drugs on rodent aggression (Miczek et al., 2001). The RI assay typically relies on the interpretation and scoring of offensive (resident animal) behavior patterns and may also include analysis of defensive (intruder animal) behavior patterns as well. […] The resident mice were isolated for 1 week prior to testing aggressive behavior, while the intruders were group housed (4 per cage) throughout the study. All mice were given ad libitum food and water. Following the 1-week isolation period, aggressive behaviors were recorded using a front-facing camera daily (Monday-Friday) for up to 2 weeks to attain a stable baseline prior to evaluating drug effects. The interaction was scored using Borris open source event logging software to score the number of total initiated attacks by the resident and the cumulative duration of those attacks. Single fight bouts lasting longer than 60 seconds were stopped and the intruder was subsequently removed from the resident cage. […] The resident mice were treated with vehicle for two consecutive days and then balanced for a two arm (3 and 10 mg/kg) cross over study. […] The consecutive fourth and fifth days were vehicle treatment followed by a final cross over treatment day on the sixth day.

[8] = tested on: VPA-exposed male c57/B16 mice; test: 3-chamber Social Interaction Assay in valproic acid (VPA)-induced mouse model of ASD; format: in vivo; conditions: adult male c57/B16 mice previously exposed to VPA; 10 mg/kg i.p. 15 min before test; vs vehicle
Experimental: Specifically, sociability was evaluated in male c57/B16 mice that were previously exposed to valproic acid (VPA) via i.p. delivery of 500 mg/kg to their pregnant mothers at embryonic Day 13.
In this study, zolmitriptan was dissolved in 10% (2-Hydroxypropyl)-o-cyclodextrin in saline and administered intraperitoneally (i.p.) 15 minutes before mice were placed in the test chamber. Behavioral recordings were measured using an automated video tracking system (Noldus EthoVision v14) and analyzed and graphed using GraphPad Prism software v8. Sociability was assessed during a 10 min period in the 3-chamber Social Interaction Assay. The time spent (sec) in the social interaction zone (SIZ) in front of the juvenile novel C57/BL6 vs empty interaction zone (EIZ) were used to calculate the sociability scores for individual mice. Sociability index was calculated using SIZ/EIZ ratio. Social interaction preference was calculated using (SIZ)/(SIZ+EIZ)*100. Simultaneous recording up to 4 arenas were conducted for the social interaction assay. Paired and unpaired T tests were used as statistical tests.

[9] = target: T3, 5-HT1b receptor; test: Radioligand binding competition assay with 3H-5-CT; conditions: for Ki: 3H-5-CT, derived from IC50 using Cheng-Prusoff equation
From the text: The Ki values were derived from IC50 values using Cheng-Prusoff equation.

[10] = CSF exposure in c57/B16 mice after i.p. dosing
[11] = CSF exposure in adult male CD-1 mice after i.p. dosing; conditions: male CD-1 mice dosed with zolmitriptan 3 and 10 mg/kg i.p.
[12] = BALB/c resident mice, 3 and 10 mg/kg i.p., 15 min pretreatment, 5 min interaction, cross-over vs vehicle
[13] = male, c57/B16, mouse, CSF, ip, 10 mg/kg

Structure (SMILES): CN(C)CCc1c[nH]c2ccc(C[C@H]3COC(=O)N3)cc12 [Zolmitriptan, zolmitriptan]
- Attack Time (s) [1]: 18.46*** s
- Attack Time (s) ([1]; listed as zolmitriptan): greater reduction in attack time
- Latency to Attack [1]: 13.54 s
- activity in GTPgS at CSF Cmax ([2]; CD-1 mouse, 3 mg/Kg i.p., CSF Cmax 18.8 nM): 36%
- activity in GTPgS at CSF Cmax ([2]; c57/Bl6 mouse, 10 mg/Kg i.p., CSF Cmax 62 nM): 65%
- difference between species in EC50 (rat vs human 5-HT1b) ([2]; rat EC50 relative to human EC50): 8.3 fold
- EC50 [2]: 33 nM
- Cmax ([3]; 3 mg/kg): 5.4 ng/mL
- Cmax ([3]; 10 mg/kg): 34.4 ng/mL
- CSF levels required for therapeutic effect, humans vs mice (fold lower) ([4]; extrapolated from species difference in EC50): about 8.3 fold
- EC50 [4]: 4 nM
- concentration for 50% Total Efficacy relative to zolmitriptan EC50 ([5]; combined effect of metabolite): 3.7 fold
- concentration of zolmitriptan in human CSF predicted to induce 50% efficacy (EC50) of 5-HT1b by zolmitriptan and NDMZ ([5]; model prediction): 1.09 nM and 0.31 ng/ml
- Zolmitriptan human dose ([5]; Activity EC20-EC80): 1.25 to 35 mg
- Zolmitriptan human dose ([5]; Activity EC25-EC75): 1.7 to 30 mg
- Zolmitriptan human dose ([5]; Activity EC30-EC70): 2.25 to 20 mg
- Zolmitriptan human dose ([5]; Activity EC35-EC65): 3 to 15 mg
- Zolmitriptan human dose ([5]; Activity EC40-EC60): 5 to 12.5 mg
- Zolmitriptan [CSF] ([5]; Activity EC20-EC80): 0.078 to 1.24 ng/mL
- Zolmitriptan [CSF] ([5]; Activity EC25-EC75): 0.103 to 0.93 ng/mL
- Zolmitriptan [CSF] ([5]; Activity EC30-EC70): 0.135 to 0.713 ng/mL
- Zolmitriptan [CSF] ([5]; Activity EC35-EC65): 0.167 to 0.577 ng/mL
- Zolmitriptan [CSF] ([5]; Activity EC40-EC60): 0.207 to 0.465 ng/mL
- safety and tolerability ([6]; adult healthy volunteers, oral TID multiple ascending doses, all Cohorts): safe and well tolerated
- Kp at 2 h ([6]; human, CSF, oral, read-out: CSF: plasma ratio for exposure): 0.03
- attack time [7, 12]: reduction
- number of attacks [7, 12]: reduction in the number of attacks
- attack behavior, dose dependence ([7]; BALB/c resident mice, 3 and 10 mg/kg i.p., p<0.05, paired t-test): significant dose dependent effect of reduction in attack behavior
- normal locomotor activity ([7]; treated mice, 3 and 10 mg/kg): did not effect normal locomotor activity
- sociability index (SIZ/EIZ ratio) [8]: increased the sociability index
- Ki [9]: 3.34 nM
- c57/B16 mouse CSF Cmax (10 mg/Kg, i.p.) ([10]; 10 mg/Kg i.p.): 17.83 ng/mL
- estimated effective CSF Cmax ([10]; c57/Bl6 ASD mouse model, 10 mg/Kg i.p.): 62 nM
- Kp ([10]; male, c57/B16, mouse, CSF, intraperitoneal, 10 mg/kg): 0.0076
- Cmax [10, 13]: 17.8 ng/mL
- Kp [10, 13]: 0.0076

Structure (SMILES): CNCCc1c[nH]c2ccc(C[C@H]3COC(=O)N3)cc12 [NDMZ, N-desmethyl zolmitriptan]
- Ki [9]: 1.18 nM
- potency relative to zolmitriptan at human 5-HT1b ([9]; from Ki values): 2.83 fold
- metabolite NDMZ level [11]: below the lower limit of quantification
- metabolite NDMZ level in CSF ([10]; male c57/B16 mice dosed with zolmitriptan 10 mg/kg i.p.): below the lower limit of quantification

Structure (SMILES): CNS(=O)(=O)CCc1ccc2[nH]cc(C3CCN(C)CC3)c2c1 [Naratriptan, naratriptan]
- EC50 [2]: 7.4 nM
- EC50 [4]: 1.2 nM
- Ki [9]: 0.95 nM
- c57/B16 mouse CSF Cmax (10 mg/Kg, i.p.) ([10]; 10 mg/Kg i.p.): 79.56 ng/mL
- Kp [10, 13]: 0.0312

Structure (SMILES): CN1CCC[C@@H]1Cc1c[nH]c2ccc(CCS(=O)(=O)c3ccccc3)cc12 [Eletriptan, eletriptan]
- EC50 [2]: 120 nM
- EC50 [4]: 8.8 nM
- Ki [9]: 4.48 nM
- c57/B16 mouse CSF Cmax (10 mg/Kg, i.p.) ([10]; 10 mg/Kg i.p.): 13.46 ng/mL
- Kp [10, 13]: 0.0077

Structure (SMILES): CN[C@@H]1CCc2[nH]c3ccc(C(N)=O)cc3c2C1 [Frovatriptan, frovatriptan]
- c57/B16 mouse CSF Cmax (10 mg/Kg, i.p.) ([10]; 10 mg/Kg i.p.): 12.52 ng/mL
- Kp [10, 13]: 0.0015

Structure (SMILES): Cc1nc2n(c(=O)c1CCN1CCC(c3noc4cc(F)ccc34)CC1)CCCC2 [Risperidone]
- Attack Time (s) [1]: 21.58* s
- Latency to Attack [1]: 12.98 s

Structure (SMILES): CN(C)CCc1c[nH]c2ccc(Cn3cncn3)cc12 [Rizatriptan, rizatriptan]
- EC50 [2]: 210 nM
- c57/B16 mouse CSF Cmax (10 mg/Kg, i.p.) ([10]; 10 mg/Kg i.p.): 90.20 ng/mL
- Kp [10, 13]: 0.0466
